Drawing on patent US8044079B2, “Substituted oxindole derivatives, medicaments containing said derivatives and use thereof” (Abbott GmbH & Co. KG, priority 2005, dated 2011), this text covers Ki for 22 compounds.

In the experiment the target is T1, human vasopressin V1b receptor (Homo sapiens, UniProt P47901).
T1 construct: expressed in transfected cells; host or cells: CHO-K1 (cell line hV1b_3H2_CHO), membrane preparation
T1 sequence (P47901 1-424): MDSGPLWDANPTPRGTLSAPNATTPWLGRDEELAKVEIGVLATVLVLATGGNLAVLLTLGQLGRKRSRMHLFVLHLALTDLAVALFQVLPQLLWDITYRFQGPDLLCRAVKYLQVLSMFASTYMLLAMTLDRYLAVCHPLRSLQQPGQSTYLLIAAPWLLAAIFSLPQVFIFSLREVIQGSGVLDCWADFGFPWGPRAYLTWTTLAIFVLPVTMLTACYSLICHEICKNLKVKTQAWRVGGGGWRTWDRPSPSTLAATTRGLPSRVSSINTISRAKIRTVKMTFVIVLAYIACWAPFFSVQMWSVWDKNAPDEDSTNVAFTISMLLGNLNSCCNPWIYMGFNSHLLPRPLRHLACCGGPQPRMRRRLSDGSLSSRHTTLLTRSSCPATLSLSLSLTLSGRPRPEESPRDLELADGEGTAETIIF
The experiment can be described thus: Vasopressin V1b receptor binding test. The following applies: membranes of CHO-K1 cells with human V1b receptor, displacement of 1.5 nM 3H-AVP; for compounds with more than one stereogenic center the diastereomer with greater affinity. A digest of the protocol: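 Radioligand displacement on membranes carrying human V1b receptor in 50 mM tris, 10 mM MgCl2, 0.1% BSA, pH 7.4, 2% DMSO final; 60 min at room temperature, nonspecific binding with 1 μM AVP. Free ligand removed by filtration, bound counted by liquid scintillation, Ki from nonlinear regression of triplicates.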

A word on the Ki: it is the dissociation constant of the complex between target and ligand, obtained from inhibition or displacement. A higher Ki goes with a looser hold on the target. Consider `COc1ccc(S(=O)(=O)N2C(=O)C(c3cc(CN4CCN(C)CC4)ccc3OC)(N3CCC[C@H]3c3ncco3)c3cc(Cl)c(Cl)cc32)cc1` (stereo partly drawn) [Example 74, 5,6-Dichloro-1-(4-methoxybenzenesulfonyl)-3-[2-methoxy-5-(4-methylpiperazin-1-ylmethyl)phenyl]-3-((S)-2-oxazol-2-yl-pyrrolidin-1-yl)-1,3-dihydroindol-2-one], for which the inhibition constant (Ki) lay within 10 to 100 nM. To `COc1ccc(S(=O)(=O)N2C(=O)C(c3cc(CN4CCNCC4)ccc3OC)(N3CCC[C@H]3c3ncco3)c3cc(Cl)c(Cl)cc32)cc1` (stereo partly drawn) [Example 75, 5,6-Dichloro-1-(4-methoxybenzenesulfonyl)-3-(2-methoxy-5-piperazin-1-ylmethylphenyl)-3-((S)-2-oxazol-2-yl-pyrrolidin-1-yl)-1,3-dihydroindol-2-one] belongs 10 to 100 nM; to `COc1ccc(S(=O)(=O)N2C(=O)C(c3cc(CN4CCCC4)ccc3OC)(N3CCC[C@H]3c3ncco3)c3cc(Cl)c(Cl)cc32)cc1` (stereo partly drawn) [Example 78, 5,6-Dichloro-1-(4-methoxybenzenesulfonyl)-3-(2-methoxy-5-pyrrolidin-1-ylmethylphenyl)-3-((S)-2-oxazol-2-yl-pyrrolidin-1-yl)-1,3-dihydroindol-2-one], 10 to 100 nM; to `CCOc1ccc(S(=O)(=O)N2C(=O)C(c3cc(CN4CCN(C)CC4)ccc3OC)(N3CCC[C@H]3c3ncco3)c3cc(Cl)ccc32)cc1` (stereo partly drawn) [Example 80, 5-Chloro-1-(4-ethoxybenzenesulfonyl)-3-[2-methoxy-5-(4-methylpiperazin-1-ylmethyl)phenyl]-3-((S)-2-oxazol-2-yl-pyrrolidin-1-yl)-1,3-dihydroindol-2-one], 10 to 100 nM.

Regarding `COc1ccc(CN2CCN(C)CC2)cc1C1(N2CCC[C@H]2c2ncco2)C(=O)N(S(=O)(=O)c2ccc(C#N)cc2)c2ccc(Cl)cc21` (stereo partly drawn) [Example 81, 5-Chloro-1-(4-cyanobenzenesulfonyl)-3-[2-methoxy-5-(4-methylpiperazin-1-ylmethyl)phenyl]-3-((S)-2-oxazol-2-yl-pyrrolidin-1-yl)-1,3-dihydroindol-2-one], the inhibition constant (Ki) is 10 to 100 nM. Under `COc1ccc(CN2CCN(C)CC2)cc1C1(N2CCC[C@H]2c2ncco2)C(=O)N(S(=O)(=O)c2ccc(F)cc2)c2ccc(Cl)cc21` (stereo partly drawn) [Example 82, 5-Chloro-1-(4-fluorobenzenesulfonyl)-3-[2-methoxy-5-(4-methylpiperazin-1-ylmethyl)phenyl]-3-((S)-2-oxazol-2-yl-pyrrolidin-1-yl)-1,3-dihydroindol-2-one] stands 100 to 1000 nM. Compound `COc1ccc(CN2CCN(C)CC2)cc1C1(N2CCC[C@H]2c2ncco2)C(=O)N(S(=O)(=O)c2ccccc2)c2ccc(Cl)cc21` (stereo partly drawn) [Example 84, 1-(Benzenesulfonyl)-5-chloro-3-[2-methoxy-5-(4-methylpiperazin-1-ylmethyl)phenyl]-3-((S)-2-oxazol-2-yl-pyrrolidin-1-yl)-1,3-dihydroindol-2-one] came in with an inhibition constant (Ki) of 100 to 1000 nM. On to `CCc1ccc(S(=O)(=O)N2C(=O)C(c3cc(CN4CCN(C)CC4)ccc3OC)(N3CCC[C@H]3c3ncco3)c3cc(Cl)ccc32)cc1` (stereo partly drawn) [Example 85, 5-Chloro-1-(4-ethylbenzenesulfonyl)-3-[2-methoxy-5-(4-methylpiperazin-1-ylmethyl)phenyl]-3-((S)-2-oxazol-2-yl-pyrrolidin-1-yl)-1,3-dihydroindol-2-one], for which the Ki lay within 10 to 100 nM.

On to `COc1ccc(S(=O)(=O)N2C(=O)C(c3cc(CN4CCN(C)CC4)ccc3OC)(N3CCC[C@H]3c3ncco3)c3cc(Cl)ccc32)c(OC)c1` (stereo partly drawn) [Example 86, 5-Chloro-1-(2,4-dimethoxybenzenesulfonyl)-3-[2-methoxy-5-(4-methylpiperazin-1-ylmethyl)phenyl]-3-((S)-2-oxazol-2-yl-pyrrolidin-1-yl)-1,3-dihydroindol-2-one], for which the inhibition constant Ki was 10 to 100 nM. Under `COc1ccc(S(=O)(=O)N2C(=O)C(c3cc(CN4CCN(C)CC4)ccc3OC)(N3CCC[C@H]3c3ncco3)c3cc(Cl)ccc32)cc1F` (stereo partly drawn) [Example 87, 5-Chloro-1-(3-fluoro-4-methoxybenzenesulfonyl)-3-[2-methoxy-5-(4-methylpiperazin-1-ylmethyl)phenyl]-3-((S)-2-oxazol-2-yl-pyrrolidin-1-yl)-1,3-dihydroindol-2-one] stands 10 to 100 nM. `CCN1CCN(Cc2ccc(OC)c(C3(N4CCC[C@H]4c4ncco4)C(=O)N(S(=O)(=O)c4ccc(OC)cc4)c4ccc(Cl)cc43)c2)CC1` (stereo partly drawn) [Example 88, 5-Chloro-3-[5-(4-ethylpiperazin-1-ylmethyl)-2-methoxyphenyl]-1-(4-methoxybenzenesulfonyl)-3-((S)-2-oxazol-2-yl-pyrrolidin-1-yl)-1,3-dihydroindol-2-one] showed an inhibition constant Ki of less than 10 nM. To `COc1ccc(S(=O)(=O)N2C(=O)C(c3cc(CN4CCN(C(C)C)CC4)ccc3OC)(N3CCC[C@H]3c3ncco3)c3cc(Cl)ccc32)cc1` (stereo partly drawn) [Example 89, 5-Chloro-3-[5-(4-isopropylpiperazin-1-ylmethyl)-2-methoxyphenyl]-1-(4-methoxybenzenesulfonyl)-3-((S)-2-oxazol-2-yl-pyrrolidin-1-yl)-1,3-dihydroindol-2-one] belongs less than 10 nM; to `COc1ccc(S(=O)(=O)N2C(=O)C(c3cc(CN4CCN(C(C)=O)CC4)ccc3OC)(N3CCC[C@H]3c3ncco3)c3cc(Cl)ccc32)cc1` (stereo partly drawn) [Example 90, 3-[5-(4-Acetylpiperazin-1-ylmethyl)-2-methoxyphenyl]-5-chloro-1-(4-methoxybenzenesulfonyl)-3-((S)-2-oxazol-2-yl-pyrrolidin-1-yl)-1,3-dihydroindol-2-one], 10 to 100 nM. Consider `COc1ccc(S(=O)(=O)N2C(=O)C(c3cc(CN4CCCN(C)CC4)ccc3OC)(N3CCC[C@H]3c3ncco3)c3cc(Cl)ccc32)cc1` (stereo partly drawn) [Example 91, 5-Chloro-1-(4-methoxybenzenesulfonyl)-3-[2-methoxy-5-(4-methyl-[1,4]diazepan-1-ylmethyl)phenyl]-3-((S)-2-oxazol-2-yl-pyrrolidin-1-yl)-1,3-dihydroindol-2-one], for which the inhibitory constant (Ki) is less than 10 nM. The compound `COc1ccc(S(=O)(=O)N2C(=O)C(c3cc(CN4CCN(CCO)CC4)ccc3OC)(N3CCC[C@H]3c3ncco3)c3cc(Cl)ccc32)cc1` (stereo partly drawn) [Example 92, 5-Chloro-3-{5-[4-(2-hydroxyethyl)piperazin-1-ylmethyl]-2-methoxyphenyl}-1-(4-methoxybenzenesulfonyl)-3-((S)-2-oxazol-2-yl-pyrrolidin-1-yl)-1,3-dihydroindol-2-one] gave a Ki of less than 10 nM. For the compound `COc1ccc(S(=O)(=O)N2C(=O)C(c3cc(CNCCO)ccc3OC)(N3CCC[C@H]3c3ncco3)c3ccc(Cl)cc32)cc1` (stereo partly drawn) [Example 93, 6-Chloro-3-{5-[(2-hydroxyethylamino)methyl]-2-methoxyphenyl}-1-(4-methoxybenzenesulfonyl)-3-((S)-2-oxazol-2-yl-pyrrolidin-1-yl)-1,3-dihydroindol-2-one], the Ki is 100 to 1000 nM. As for `COc1ccc(S(=O)(=O)N2C(=O)C(c3cc(CN4CCN(C(C)C)CC4)ccc3OC)(N3CCC[C@H]3c3ncco3)c3cc(C#N)ccc32)cc1` (stereo partly drawn) [Example 94, 5-Cyano-3-[5-(4-isopropylpiperazin-1-ylmethyl)-2-methoxyphenyl]-1-(4-methoxybenzenesulfonyl)-3-((S)-2-oxazol-2-yl-pyrrolidin-1-yl)-1,3-dihydroindol-2-one], the inhibition constant Ki was in the range of 10 to 100 nM.

With `COc1ccc(S(=O)(=O)N2C(=O)C(c3cc(CN4CCN(C(C)=O)CC4)ccc3OC)(N3CCC[C@H]3c3ncco3)c3cc(C#N)ccc32)cc1` (stereo partly drawn) [Example 95, 5-Cyano-3-[5-(4-acetylpiperazin-1-ylmethyl)-2-methoxyphenyl]-1-(4-methoxybenzenesulfonyl)-3-((S)-2-oxazol-2-yl-pyrrolidin-1-yl)-1,3-dihydroindol-2-one], the Ki lay in the range of 10 to 100 nM. The compound `COc1ccc(S(=O)(=O)N2C(=O)C(c3cc(CN4CCOCC4)ccc3OC)(N3CCC[C@H]3c3ncco3)c3cc(Cl)ccc32)cc1` (stereo partly drawn) [Example 96, 5-Chloro-1-(4-methoxybenzenesulfonyl)-3-(2-methoxy-5-(morpholin-4-ylmethyl)phenyl)-3-((S)-2-oxazol-2-yl-pyrrolidin-1-yl)-1,3-dihydroindol-2-one] returned an inhibition constant (Ki) of 10 to 100 nM. `CNCc1ccc(C2(N3CCC[C@H]3c3ncco3)C(=O)N(S(=O)(=O)c3ccc(OC)cc3)c3ccc(C#N)cc32)c(OC)c1` (stereo partly drawn) [Example 97, 5-Cyano-1-(4-methoxybenzenesulfonyl)-3-(2-methoxy-4-methylaminomethylphenyl)-3-((S)-2-oxazol-2-yl-pyrrolidin-1-yl)-1,3-dihydroindol-2-one] gave a Ki of 10 to 100 nM. Under `CCNCc1ccc(C2(N3CCC[C@H]3c3ncco3)C(=O)N(S(=O)(=O)c3ccc(OC)cc3)c3ccc(C#N)cc32)c(OC)c1` (stereo partly drawn) [Example 98, 5-Cyano-3-(4-ethylaminomethyl-2-methoxyphenyl)-1-(4-methoxybenzenesulfonyl)-3-((S)-2-oxazol-2-yl-pyrrolidin-1-yl)-1,3-dihydroindol-2-one] stands 10 to 100 nM; under `CCCNCc1ccc(C2(N3CCC[C@H]3c3ncco3)C(=O)N(S(=O)(=O)c3ccc(OC)cc3)c3ccc(C#N)cc32)c(OC)c1` (stereo partly drawn) [Example 99, 5-Cyano-1-(4-methoxybenzenesulfonyl)-3-(2-methoxy-4-(propylaminomethyl)phenyl)-3-((S)-2-oxazol-2-yl-pyrrolidin-1-yl)-1,3-dihydroindol-2-one], 10 to 100 nM.
